How the values were obtained:
[1] = cited from earlier work
[2] = Maximum solubility of DHEA in lipophilic excipients (12 h stirring with excess active, filtration, HPLC); type: physicochemical; conditions: room temperature
Protocol: In Table 1 are various examples showing the low solubility of DHEA in a lipophilic phase:
These maximum solubilities of DHEA were measured after stirring for 12 h with a magnetic stirrer bar, at room temperature, with an excess of active ingredient in the excipient to be analyzed. The suspension is then filtered (1.2 μm) and then the filtrate is assayed by HPLC.
Above the concentration measured, there is recrystallization of the DHEA at room temperature.

C[C@]12CC[C@H](O)CC1=CC[C@@H]1[C@@H]2CC[C@]2(C)C(=O)CC[C@@H]12 [DHEA, 3-beta-hydroxyandrosteron-5-en-17-one]
maximum solubility in water [1]: 20 µg/mL
Solubility (% w/w) ([2]; in Caprylic/capric triglycerides): 1.77% w/w
Solubility (% w/w) ([2]; in Cetearyl isononanoate): 0.83% w/w
Solubility (% w/w) ([2]; in Cyclomethicone): 0.04% w/w
Solubility (% w/w) ([2]; in Dimethicone): 0.17% w/w
Solubility (% w/w) ([2]; in Isopropyl palmitate): 1.37% w/w
Solubility (% w/w) ([2]; in Mineral oil): 1.00% w/w
Solubility (% w/w) ([2]; in Octyl palmitate): 1.00% w/w
Solubility (% w/w) ([2]; in Sesame oil): 1.40% w/w
Solubility (% w/w) ([2]; in Squalane): 0.10% w/w

Source: patent US20040219123A1, “Invert emulsions comprising DHEA” (GALDERMA RESEARCH & DEVELOPMENT, S.N.C., priority 2001, published 2004)
